These results are taken from US12122780B2, “Pyrimidinyl group-containing tricyclic compound serving as c-Met inhibitor” (JIANGSU AOSAIKANG PHARMACEUTICAL CO., LTD., priority 2019, dated 2024).

One experiment concerns EBC-1 cells. The experiment in a line: EBC-1 cell proliferation experiment (CellTiter-Glo). It counts as cell-based, human. Conditions: 3 days. As for the experimental part:
MEM medium, fetal bovine serum, penicillin/streptomycin antibiotics were purchased from Wisent. EBC-1 cell line was purchased from Nanjing COBIO Bioscience Co., LTD. Envision multi-label analyzer (PerkinElmer).
EBC-1 cells were seeded in a white 96-well plate, […] cell suspension per well, which contained 3000 EBC-1 cells. The cell plate was placed in a carbon dioxide incubator for overnight culture.
The compound to be tested was diluted 5-fold to the eighth concentration with a discharge gun, i.e., from 2 mM to […], and double duplicate wells experiment was set. 78 μL of the medium was added to the middle plate, then 2 μL per well of gradient diluted compound was transferred to the corresponding position on the middle plate, then mixed well and 20 μL per well was transferred to the cell plate. The cell plate was cultured in a carbon dioxide incubator for 3 days. Another cell plate was prepared and the signal values were read on the day of dosing as […] to be used in the data analysis. 25 μL of Promega CellTiter-Glo was added to each well of this cell plate, and incubated at room temperature for 10 minutes to stabilize the luminescence signal. Readings were taken using a PerkinElmer Envision multi-label analyzer.
25 μL of Promega CellTiter-Glo reagent was added to each well of this cell plate, and incubated at room temperature for 10 minutes to stabilize the luminescence signal. Readings were taken using a PerkinElmer Envision multi-label analyzer.
Using the equation (Sample-Min)/(Max-Min)*100% to convert the original data to the inhibition rate, the IC50 value can be obtained by curve fitting with four parameters (obtained by “log(inhibitor) vs. response in GraphPad Prism—Variable slope mode).
For orientation: ATP-based viability assays read luminescence as a measure of living cells.

In a further experiment the target is c-Met enzyme (Homo sapiens (Human), UniProt P08581). Briefly: c-Met enzyme activity inhibition (Promega c-Met Kinase Enzyme System, ADP-Glo). The following applies: 10 μM ATP, 60 min, 30° C. It counts as biochemical. The method, then: To detect the inhibitory effect of the compounds on c-Met enzyme activity.
The c-Met Kinase Enzyme System was purchased from Promega. Envision multi-label analyzer (PerkinElmer).
The kinase buffer in the kit was used to dilute the enzyme, substrate, ATP and inhibitor.
The compound to be tested was diluted 5-fold to the eighth concentration with a discharge gun, i.e., from 50 μM to […], with a final DMSO concentration of 5%, and double duplicate wells experiment was set. 1 μL of each concentration gradient of the inhibitor, 2 μL of c-Met enzyme (4 ng), 2 μL of a mixture of the substrate and ATP (10 μM ATP, 0.2 μg/μL poly E4Y1) were added to the microplate, and the final concentration gradient of the compound of 10 μM was diluted to 0.13 nM. The reaction system was placed at 30° C. and the reaction was carried out for 60 minutes. When the reaction was completed, 5 μL of ADP-Glo reagent was added to each well and the reaction was carried out at 30° C. for another 40 minutes, when the reaction was completed, 10 μL of kinase detection reagent was added to each well, then the reaction was carried out at 30° C. for still another 30 minutes, chemiluminescence was read by the PerkinElmer Envision multi-label analyzer with an integration time of 0.5 seconds.
Using the equation (Sample-Min)/(Max-Min)*100% to convert the original data to the inhibition rate, the IC50 value can be obtained by curve fitting with four parameters (obtained by log(inhibitor) vs. response in GraphPad Prism—Variable slope mode).
On the technique in general: In ADP-Glo the light output rises with the ADP produced.

The structures appear in SMILES notation. Counter-ions that a name gives are not always drawn.

c-Met enzyme, sequence (P08581 956-1390): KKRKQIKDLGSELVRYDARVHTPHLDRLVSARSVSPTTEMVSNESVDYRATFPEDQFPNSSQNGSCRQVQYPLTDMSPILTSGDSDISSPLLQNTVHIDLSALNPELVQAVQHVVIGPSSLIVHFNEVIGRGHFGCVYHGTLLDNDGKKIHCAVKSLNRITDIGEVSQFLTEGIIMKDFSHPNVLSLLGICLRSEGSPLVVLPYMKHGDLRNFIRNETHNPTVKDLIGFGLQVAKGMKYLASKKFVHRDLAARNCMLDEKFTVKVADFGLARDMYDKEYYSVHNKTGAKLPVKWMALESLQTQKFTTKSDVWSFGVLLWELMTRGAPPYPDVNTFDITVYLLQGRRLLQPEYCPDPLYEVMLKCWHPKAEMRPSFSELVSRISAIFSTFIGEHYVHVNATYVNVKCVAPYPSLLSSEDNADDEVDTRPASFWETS

As usually defined, the IC50 is the point on the concentration scale where inhibition reaches its midpoint. `N#Cc1ccc2nc3n(Cc4cccc(-c5ncc(OCC6CCN(C7CCC7)CC6)cn5)c4)c(=O)ccn3c2c1` [Hydrochloride of compound 44] gave an IC50 with EBC-1 cells of 6.83 nM.

For `COCCN1CCC(COc2cnc(-c3cccc(Cn4c(=O)ccn5c6cc(C#N)ccc6nc45)c3)nc2)CC1` [Hydrochloride of compound 35], the half-maximal inhibitory concentration (IC50) amounted to 11.6 nM at c-Met enzyme and 5.8 nM in the experiment with EBC-1 cells (Homo sapiens, EBC-1, 72 h).

Compound `CS(=O)(=O)CCN1CCC(COc2cnc(-c3cccc(Cn4c(=O)ccn5c6cc(C#N)ccc6nc45)c3)nc2)CC1` [Hydrochloride of compound 42] returned a concentration for half-maximal inhibition (IC50) against c-Met enzyme of 15.2 nM. `CN1CCC(COc2cnc(-c3cccc(Cn4c5c(ccc4=O)-c4cc(F)ccc4C5=O)c3)nc2)CC1` [Formate of compound 3]: the IC50 was 16 nM against c-Met enzyme and 32.8 nM in the experiment on EBC-1 cells (Homo sapiens, EBC-1, 72 h). In turn, `CC(C)N1CCC(COc2cnc(-c3cccc(Cn4c(=O)ccn5c6cc(C#N)cnc6nc45)c3)nc2)CC1` [Hydrochloride of compound 33] returned a concentration for half-maximal inhibition (IC50) with EBC-1 cells (Homo sapiens, EBC-1, 72 h) of 899 nM. For `CCN1CCC(COc2cnc(-c3cccc(Cn4c(=O)c(F)cn5c6cc(C#N)ccc6nc45)c3)nc2)CC1` [Hydrochloride of compound 13], the IC50 amounted to 42 nM at c-Met enzyme and 133 nM with EBC-1 cells (Homo sapiens, EBC-1, 72 h). Compound `CN(C)CCN1CCC(COc2cnc(-c3cccc(Cn4c(=O)ccn5c6cc(C#N)ccc6nc45)c3)nc2)CC1` [Compound 31] displayed an IC50 with EBC-1 cells (Homo sapiens, EBC-1, 72 h) of 493 nM.

Take `CN1CCC(COc2cnc(-c3cccc(Cn4c(=O)ccc5c6cc(C#N)ccc6sc54)c3)nc2)CC1` [Hydrochloride of compound 6]: the IC50 on c-Met enzyme was 24.9 nM; in the experiment on EBC-1 cells (Homo sapiens, EBC-1, 72 h) it was 62.8 nM.

In the experiment with EBC-1 cells, `N#Cc1ccc2nc3n(Cc4cccc(-c5ncc(OCC6CCN(C7CCC7)CC6)cn5)c4)c(=O)ccn3c2c1` [Hydrochloride of compound 45] displayed an IC50 of 19.3 nM.

With `CN1CCC(COc2cnc(-c3cccc(Cn4c5c(ccc4=O)-c4cc(C#N)ccc4OC5)c3)nc2)CC1` [Formate of compound 5], the IC50 against c-Met enzyme worked out at 131 nM; in the experiment with EBC-1 cells (Homo sapiens, EBC-1, 72 h), 585 nM.

Regarding `CN1CCC(COc2cnc(-c3cccc(Cn4c(=O)ccc5c4nc4ccc(C#N)cn45)c3)nc2)CC1` [Hydrochloride of compound 23], the IC50 against c-Met enzyme turned out to be 6.46 nM; in the experiment with EBC-1 cells (Homo sapiens, EBC-1, 72 h) it was 16.8 nM. The matching figures for `CN1CCC(COc2cnc(-c3cccc(Cn4c5c(cc(F)c4=O)-c4cc(C#N)ccc4C5(F)F)c3)nc2)CC1` [Hydrochloride of compound 16]: 45 nM and 135 nM. The like results for `CCN1CCC(COc2cnc(-c3cccc(Cn4c5c(ccc4=O)-c4cc(C#N)ccc4C5=O)c3)nc2)CC1` [Hydrochloride of compound 12] were, in that order, 5.06 nM and 6.66 nM.

`CN1CCC(COc2cnc(-c3cccc(Cn4c5c(ccc4=O)-c4cc(F)ccc4C5(F)F)c3)nc2)CC1` [Formate of compound 4] gave an IC50 against c-Met enzyme of 167 nM. With `CN1CCC(COc2cnc(-c3cccc(Cn4c(=O)c(F)cc5c6cc(C#N)ccc6sc54)c3)nc2)CC1` [Hydrochloride of compound 8], the concentration for half-maximal inhibition (IC50) is 21.5 nM on c-Met enzyme and 36 nM in the experiment on EBC-1 cells (Homo sapiens, EBC-1, 72 h). With `CN1CCC(COc2cnc(-c3cccc(Cn4c(=O)ccn5c6cc(C#N)cnc6nc45)c3)nc2)CC1` [Hydrochloride of compound 32], the IC50 in the experiment with EBC-1 cells (Homo sapiens, EBC-1, 72 h) was 816 nM. With `CC(C)N1CCC(COc2cnc(-c3cccc(Cn4c5c(ccc4=O)-c4cc(C#N)ccc4C5=O)c3)nc2)CC1` [Hydrochloride of compound 19], the IC50 was 13.4 nM on c-Met enzyme and 14.1 nM with EBC-1 cells (Homo sapiens, EBC-1, 72 h). For `CN1CCN(C(=O)Oc2cnc(-c3cccc(Cn4c5c(ccc4=O)-c4cc(C#N)ccc4C5=O)c3)nc2)CC1` [Hydrochloride of compound 20], the IC50 against c-Met enzyme amounted to 26 nM. With `CCCN1CCC(COc2cnc(-c3cccc(Cn4c(=O)ccn5c6cc(C#N)ccc6nc45)c3)nc2)CC1` [Hydrochloride of compound 43], the IC50 with EBC-1 cells (Homo sapiens, EBC-1, 72 h) is 7.32 nM.

On to `CC(C)N1CC(COc2cnc(-c3cccc(Cn4c(=O)ccn5c6cc(C#N)ccc6nc45)c3)nc2)C1` [Hydrochloride of compound 46], for which, in the experiment with EBC-1 cells (Homo sapiens, EBC-1, 72 h), the IC50 was found to be 12.2 nM.
